Measured values as given in US3969418A, “(4-Biphenylyl)-butenols” (Boehringer Ingelheim GmbH, priority 1972, dated 1976).

Columns and labels:
[1] = test system: Kaolin-induced edema of the hind paw of the rat; experiment: Kaolin-induced edema of the hind paw of the rat (antiexudative effect); type: in vivo, rat (male FW 49); conditions: per os, 30 min before edema, measured 5 h after, dose for 35% reduction of swelling, by graphical extrapolation
Experimental: (§1) The compounds were tested with respect to their antiexudative effect on the kaolin-induced edema and the carrageenin-induced edema of the hind paw of the rat and with respect to their acute toxicity after oral administration to rats, in comparison with phenylbutazone, a compound with known antiphlogistic activities.
(§2) a. Kaolin-induced edema of the hind paw of the rat
(§3) The kaolin edema was induced according to the method given by Hillebrecht [Arzneimittel-Forsch. 4, 607 (1954)] by subplantary injection of 0.05 ml of a 10% suspension of kaolin in a 0.85% sodium chloride solution. Measurement of the volume of the paws was effected using the technique of Doepfner and Cerletti [Int. Arch. Allergy Immunol. 12, 89 (1958)].
(§4) Male FW 49 rats having an average weight of 120 to 150 gm were fed with the test compounds 30 minutes before inducing the edema by means of an oesophageal tube. 5 hours after the provocation of the edema the averaged values of the swelling caused in the rats treated with the test compounds were compared with values measured on control animals. By graphical extrapolation, the dose leading to a 35% reduction of the swelling (ED35) was calculated from the presentage reduction values measured by the administration of different doses.

in vivo = conditions: rat; for LD50 at 336 h: in vivo, po
Text: The substances were fed as a trituration in Tylose.
The calculation of the LD50 values was effected, as far as possible according to the method of Litchfield and Wilcoxon, based on the percentage of animals which died within 14 days after administration of the different doses.

[2] = test system: Carrageenin-induced edema of the hind paw of the rat; experiment: Carrageenin-induced edema of the hind paw of the rat (antiexudative effect); type: in vivo, rat (male FW 49); conditions: per os, 60 min before edema, measured 3 h after, dose for 35% reduction of swelling
Experimental: as §1, §4
(§5) b. Carrageenin-induced edema of the hind paw of the rat
The provocation of the carrageenin edema was effected according to the method of Winter et al [Proc. Soc. exp. Biol. Med. 111, 544 (1962)] by subplantary injection of 0.05 ml of a 1% solution of carrageenin in a 0.85% solution of sodium chloride. The test compounds were administered 60 minutes before the provocation of the edema.
For the calculation of the reductive effect on the edema the values measured 3 hours after the provocation of the edema were used. All the other details were the same as described above in the case of the kaolin-induced edema.

[3] = test system: kaolin-induced edema and carrageenin-induced edema of the hind paw of the rat; experiment: Antiphlogistic (antiexudative) activity, kaolin and carrageenin edema together; type: in vivo, rat (male FW 49); conditions: average value from kaolin edema and carrageenin edema, per os
Experimental: The above pharmacodynamic activity of the compounds of the present invention, namely their antiphlogistic activity and their toxicity, were ascertained in the manner described below.
as §1, §2, §3, §4, §5
The provocation of the carrageenin edema was effected according to the method of Winter et al [Proc. Soc. exp. […]
For the calculation of the reductive effect on the edema the values measured 3 hours after the provocation of the edema were used. […]
(§6) The therapeutical index (a measure for the therapeutic usefulness) was calculated as the quotient of the oral LD50 and of the ED35 value calculated from the anti-exudative effect (average value from the kaolin-edema and the carrageenin-edema).

[4] = Therapeutic index (LD50/ED35); conditions: in vivo; oral LD50 / average ED35, rat; read-out: Therapeutical Index, ratio between toxic and antiexudative activity LD50/ED35
Experimental: as §6

| SMILES | ED35 [1] [mg/kg] | LD50 at 336 h (in vivo) [mg/kg] | ED35 [2] [mg/kg] | ED35 [3] [mg/kg] | selectivity ratio [4] | animals died after application (in vivo; 2000 mgm/kg per os) |
| --- | --- | --- | --- | --- | --- | --- |
| OCCC=Cc1ccc(-c2ccccc2F)cc1 [A, 4-(2"-fluoro-4'-biphenylyl)-3-buten-1-ol] | 44 | 1770 | 19 | 31.5 | 56.2 | – |
| OCCC=Cc1ccc(-c2ccccc2)cc1 [B, 4-(4'-biphenylyl)-3-buten-1-ol] | 42 | > 2000 | 50 | 46 | > 43.5 | 0 out of 10 animals died |
| CCCCC1C(=O)N(c2ccccc2)N(c2ccccc2)C1=O [Phenylbutazone, phenylbutazone, reference compound] | 58 | – | 69 | 63.5 | – | – |
